Entries after “also recorded” stand apart in the source; their conditions may differ. Like-named read-outs stand apart in the source and are kept apart here.
Tests used:
[1] = type: in vitro ADME
Text: However, the challenge in the case of nucleotides and dinucleotides is that they contain highly acid-labile purine and pyrimidine moieties in their structures. Thus, although masking the negative charge of these molecules might aid in their cellular diffusion by increased lipohilicity, it is not known whether they will be stable in gastric mucosa long enough to be absorbed orally. […] Such degradative process is known to occur by initial protonation of nitrogen of the nucleobase followed by depurination and cleavage of the sugar ring.
(§1) The stability of prodrugs in simulated gastric fluid (SGF) and simulated intestine fluid (SIF) at 37° C. were examined. SGF and SIF were prepared following reported procedures and prodrugs were incubated separately with SGF and SIF for 1 h at 37° C., processed, and analyzed using reverse-phase HPLC.

[2] = Stability in simulated intestine fluid (SIF); type: in vitro ADME; conditions: 1 h at 37° C.
Experimental: as §1

[3] = Pharmacokinetic study in woodchuck, intravenous; type: in vivo
Text: (§2) This is in contrast to traditional antiviral nucleosides, which require metabolic activation and conversion to triphosphate derivatives for their action.

[4] = Metabolism in vitro with human liver microsomes; type: in vitro ADME
Text: (§3) This would support the hypothesis that the antiviral activity of 3-dApsU2′-OMe and other di-, and tri-nucleotides is due to the intact nucleotide structure and not due to its metabolites. This is in contrast to traditional antiviral nucleosides, which require metabolic activation and conversion to triphosphate derivatives for their action.
as §2

[5] = Metabolism in vitro with mouse liver microsomes; type: in vitro ADME
Text: as §3

HBV = conditions: Iyer et al., Antimicrob. Agents and Chemotherapy, 48, 2318-2320, 2004; cited from earlier work
Vero = test: Cytotoxicity assay, Vero cell line
Experimental: (§4) We next examined the cytotoxicity profile of the pronucleotide derivatives in different cell lines such as MDBK, Vero, and HFF.
(§5) Standard MTF assays were performed in 96-well plates using the Promega CellTiter96 Non-radioactive Cell Proliferation Assay Kit in conjunction with a 96-well Plate Reader (ThermoMax, Molecular devices), and using MDBK, Vero, and TIFF cell lines (obtained from ATCC). Several controls were employed including the nucleoside analogs 3TC, AZT, and ddC, as well as, media without drugs. SDS was used as a positive cytotoxic control. All pronucleotides were tested in triplicate at concentrations of 100, 300, and 1000 μM. Following a 24-hour incubation of cells with the test substance, the MTF assay was carried out.

MDBK = test: Cytotoxicity assay, MDBK cell line
Experimental: as §4, §5

HFF = test: Cytotoxicity assay, HFF cell line
Experimental: as §4, §5

[6] = Bioreversibility (hydrolytic conversion to parent dinucleotide 5) in rabbit serum, HPLC; conditions: for time for almost complete conversion to 3′dApsU2′-OMe on serum treatment: rabbit serum, 37° C.; for t1/2 (min) in serum: rabbit
Experimental: (§6) Evaluation of bioreversibility of the pronucleotides was carried out in rabbit serum in phosphate buffer at 37° C. In order to monitor the hydrolytic conversion of the pronucleotides to the dinucleotide 5, aliquots of incubate were removed at different time points, processed, and analyzed using reversed-phase HPLC.
Bioreversibility studies were carried out as follows: A stock solution of each analog was prepared by dissolving 2 mg in 100 μL of DMSO. 10 μL aliquots were diluted with 90 μL of phosphate buffer (0.1 M, pH 7.0) and 100 μL aliquots of rabbit serum. The mixture was incubated at 37° C. in a water bath. Aliquots were removed at different time points and diluted with 200 μL of methanol to stop the reaction. The incubate was then centrifuged, supernatant concentrated in a speed vac and diluted with 200 μL of 0.1 M ammonium acetate buffer prior to injection into HPLC. Reversed-phase HPLC analysis was carried out using a Waters Instrument equipped with a 600Egradient controller, and a 996 photodiode array detector with Millennium software. X-terra MS C18 2.5 μm, 2.1×20 mm column and an operating gradient of 100% A to 80% B over 30 minutes of buffer A (0.1 M NH4OAc) and buffer B (80:20, CH3CN:NH4OAc) was employed. Retention time for prodrugs ranged from 16 to 18 minutes whereas that of the Rp,Sp dinucleotide 5 was 13.5, 13.8 minutes.

human hepatitis B virus = type: in vivo, transgenic mice
[7] = Weight change and apparent toxicity in the HBV transgenic mouse study
Experimental: Male and female transgenic mice (founder 1.3.32) were infected with human hepatitis B virus. […] The positive control, ADV, was administered at 10 mg/kg/d. Statistical significance is indicated as *P≤0.05, **P≤0.01, ***P≤0.001 compared to placebo vehicle. Measurements of serum HBeAg, PEI are reported according to International Immuno Diagnostics standardized assay using Paul Ehrlich International Units (PEI U).

[8] = pH 7.2
Experimental: as §6

pig liver esterase (PLE) = tested on: pig liver esterase (PLE)
Experimental: as §6

bovine chymotrypsin = bovine chymotrypsin (Bos taurus, UniProt P00766)
[9] = oral once daily for 14 days, 6a 400, 6k 300, ADV 10 mg/kg/d

Q: Which “time of decomposing in SGF” value ([1]; SGF, 37° C.) does the source give for `COC1C(OP(=O)([S-])OCC2OC(n3cnc4c(N)ncnc43)CC2O)C(CO)OC1n1ccc(=O)[nH]c1=O.[Na+]` (mixture of isomers) [3-dApsU2′-OMe] here?
A: about 15 min

Q: And the “half-life in simulated gastric fluid” value ([1]; simulated gastric fluid)?
A: less than 10 minutes

Q: And the “stability in SIF” value [2]?
A: relatively stable

Q: What about the “elimination in the urine” value ([3]; IV) of the same compound?
A: mostly intact material

Q: What about the plasma half-life ([3]; intravenous (IV) administration) of the same compound?
A: about 1 h

Q: And the “significant metabolism in vitro” value [4]?
A: do not occur; also recorded: absence of significant metabolism

Q: And the “significant metabolism in vitro” value [5]?
A: do not occur

Q: And the “anti-HBV activity in the transgenic mouse model” value (HBV)?
A: excellent anti-HBV activity

Q: Which results are given for `COC1C(OP(=O)(OCC2OC(n3cnc4c(N)ncnc43)CC2O)SCCCCNC(=O)c2cccnc2)C(CO)OC1n1ccc(=O)[nH]c1=O` (mixture of isomers) [Compound 6j]?
A: CC50 (Vero): > 1000 µM; CC50 (MDBK): > 1000 µM; CC50 (HFF): > 1000 µM

Q: Which “time for almost complete conversion to 3′dApsU2′-OMe on serum treatment” value [6] does the source give for `CO[C@H]1C(OP(=O)(OC[C@H]2O[C@@H](n3cnc4c(N)ncnc43)CC2O)SCOC(=O)OC(C)C)[C@@H](CO)O[C@H]1n1ccc(=O)[nH]c1=O` (some centres unmarked) [Compound 6k, S-isopropylcarbonyloxymethyl Thiophosphate Derivative 6k of 3′dApsU2′OMe] here?
A: ~3 h

Q: And the “Cytotoxicity assay (um) Vero” value (Vero; Table 5, 24-hour incubation)?
A: >1000 um

Q: What about the “Cytotoxicity assay (um) MDBK” value (MDBK; Table 5, 24-hour incubation) of the same compound?
A: >1000 um

Q: What about the “Cytotoxicity assay (um) HFF” value (HFF; Table 5, 24-hour incubation) of the same compound?
A: >1000 um

Q: What about the “Liver HBV RNA (log transcripts ± sd)” value (human hepatitis B virus; [9]) of the same compound?
A: 10.8 ± 0.4 log transcripts

Q: What about the “QPCR Liver HBV DNA (pg/μg mean ± sd)” value (human hepatitis B virus; [9]) of the same compound?
A: 13.3 ± 12 pg/µg

Q: What about the “Serum HBeAg, PEI U/mL (mean ± sd)” value (human hepatitis B virus; [9]) of the same compound?
A: 67 ± 0.6 PEI U/mL

Q: And the “Serum HBsAg (signal/cutoff units ± sd)” value (human hepatitis B virus; [9])?
A: 55 ± 59 signal/cutoff units

Q: What about the “Southern blot Liver HBV DNA (pg/μg mean ± sd)” value (human hepatitis B virus; [9]) of the same compound?
A: 5.7 ± 3.2 pg/µg

Q: What about the “apparent toxicity at the high doses employed” value ([7]; 400 mg/kg/d (6a), 300 mg/kg/d (6k), oral, 14 days) of the same compound?
A: no apparent toxicity

Q: What about the “% weight change ± sd” value [7, 9] of the same compound?
A: 4.3 ± 1.8%

Q: Which CC50 (Vero) does the source give for `COC1C(OP(=O)(OCC2OC(n3cnc4c(N)ncnc43)CC2O)SCCCCNC(=O)c2ccccc2)C(CO)OC1n1ccc(=O)[nH]c1=O` (mixture of isomers) [Compound 6i] here?
A: > 1000 µM

Q: What about the CC50 (MDBK) of the same compound?
A: > 1000 µM

Q: With `COC1C(OP(=O)(OCC2OC(n3cnc4c(N)ncnc43)CC2O)SCc2ccc(NC(C)=O)cc2)C(CO)OC1n1ccc(=O)[nH]c1=O` (mixture of isomers) [Compound 6d] as the compound, how does the CC50 (Vero) read?
A: > 1000 µM

Q: What about the CC50 (MDBK) of the same compound?
A: > 1000 µM

Q: What about the CC50 (HFF) of the same compound?
A: > 1000 µM

Q: For `COC1C(OP(=O)(OCC2OC(n3cnc4c(N)ncnc43)CC2O)SCc2ccc(OC(=O)C(C)C)cc2)C(CO)OC1n1ccc(=O)[nH]c1=O` (mixture of isomers) [Compound 6b], which “time for complete conversion to the parent 5” value [6] is on record?
A: ~3 h

Q: What about the CC50 (Vero) of the same compound?
A: > 1000 µM

Q: What about the CC50 (MDBK) of the same compound?
A: > 1000 µM

Q: What about the CC50 (HFF) of the same compound?
A: > 1000 µM

Q: What about the “time stable in phosphate buffer” value [8] of the same compound?
A: up to 24 h

Q: And the “hydrolytic action of pig liver esterase (PLE)” value (pig liver esterase (PLE))?
A: resistant

Q: And the “hydrolytic action of bovine chymotrypsin” value (bovine chymotrypsin)?
A: resistant

Q: Which “Cytotoxicity assay (um) Vero” value (Vero) does the source give for `COC1C(OP(=O)(OCC2OC(n3cnc4c(N)ncnc43)CC2O)SCOC(=O)OCC(C)C)C(CO)OC1n1ccc(=O)[nH]c1=O` (mixture of isomers) [Compound 6s] here?
A: >1000 um

Q: And the “Cytotoxicity assay (um) MDBK” value (MDBK)?
A: >1000 um

Q: And the “Cytotoxicity assay (um) HFF” value (HFF)?
A: >1000 um

Q: With `COC1C(OP(=O)(OCC2OC(n3cnc4c(N)ncnc43)CC2O)SCCCCOC(C)=O)C(CO)OC1n1ccc(=O)[nH]c1=O` (mixture of isomers) [Compound 6e] as the compound, how does the “t1/2 (min) in serum” value [6] read?
A: >60^@ min

Q: What about the CC50 (Vero; read-out: CC50(μM) Vero, Table 4, 24-hour incubation) of the same compound?
A: > 1000 µM

Q: And the CC50 (MDBK; read-out: CC50(μM) MDBK, Table 4, 24-hour incubation)?
A: > 1000 µM

Q: What does the source list for `CO[C@H]1C(OP(=O)(OC[C@H]2O[C@@H](n3cnc4c(N)ncnc43)CC2O)SCOC(=O)CCC(C)C2CCC3C4CCC5CC(O)CCC5(C)C4CC(O)C23C)[C@@H](CO)O[C@H]1n1ccc(=O)[nH]c1=O` (some centres unmarked) [Compound 6l]?
A: Cytotoxicity assay (um) Vero (Vero; Table 5, 24-hour incubation): >1000 um; Cytotoxicity assay (um) MDBK (MDBK; Table 5, 24-hour incubation): >1000 um; Cytotoxicity assay (um) HFF (HFF; Table 5, 24-hour incubation): >1000 um

Q: Which results are given for `CC(C)(C)C(=O)OCOP(=O)(COCCn1cnc2c(N)ncnc21)OCOC(=O)C(C)(C)C` [ADV, adefovir dipivoxil, reference compound]?
A: Liver HBV RNA (log transcripts ± sd) (human hepatitis B virus; mouse, in vivo): 10.5 ± 0.4 log transcripts; QPCR Liver HBV DNA (pg/μg mean ± sd) (human hepatitis B virus; mouse, in vivo): 1.7 ± 1.1 pg/µg; Serum HBeAg, PEI U/mL (mean ± sd) (human hepatitis B virus; mouse, in vivo): 59 ± 9.7 PEI U/mL; Serum HBsAg (signal/cutoff units ± sd) (human hepatitis B virus; mouse, in vivo): 73 ± 52 signal/cutoff units; Southern blot Liver HBV DNA (pg/μg mean ± sd) (human hepatitis B virus; mouse, in vivo): 0.9 ± 1.1 pg/µg

Q: What does the source list for `COC1C(OP(=O)(OCC2OC(n3cnc4c(N)ncnc43)CC2O)SCOC(=O)OC(C)(C)C)C(CO)OC1n1ccc(=O)[nH]c1=O` (mixture of isomers) [Compound 6t]?
A: Cytotoxicity assay (um) Vero (Vero): >1000 um; Cytotoxicity assay (um) MDBK (MDBK): >1000 um; Cytotoxicity assay (um) HFF (HFF): >1000 um

Q: What does the source list for `CCCCOCCOC(=O)OCSP(=O)(OCC1OC(n2cnc3c(N)ncnc32)CC1O)OC1C(CO)OC(n2ccc(=O)[nH]c2=O)C1OC` (mixture of isomers) [Compound 6u]?
A: Cytotoxicity assay (um) Vero (Vero): >1000 um; Cytotoxicity assay (um) MDBK (MDBK): >300 um; Cytotoxicity assay (um) HFF (HFF): >1000 um

Q: Which results are given for `COC1C(OP(=O)(OCC2OC(n3cnc4c(N)ncnc43)CC2O)SCCCCOC(=O)c2cccnc2)C(CO)OC1n1ccc(=O)[nH]c1=O` (mixture of isomers) [Compound 6g]?
A: t1/2 (min) in serum [6]: >120^@ min; CC50 (Vero): > 1000 µM; CC50 (MDBK): > 1000 µM; CC50 (HFF): > 1000 µM

Q: Which “time for almost complete conversion to 3′dApsU2′-OMe on serum treatment” value [6] does the source give for `CO[C@H]1C(OP(=O)(OC[C@H]2O[C@@H](n3cnc4c(N)ncnc43)CC2O)SCOC(=O)C(Cc2ccccc2)NC(=O)OC(C)(C)C)[C@@H](CO)O[C@H]1n1ccc(=O)[nH]c1=O` (stereo partly drawn) [Compound 6m, N-(t-butoxycarbonyl)-L-phenylalaninate Analog 6m of 3′dApsU2′OMe] here?
A: ~3 h

Q: And the “Cytotoxicity assay (um) Vero” value (Vero; Table 5, 24-hour incubation)?
A: >1000 um

Q: What about the “Cytotoxicity assay (um) MDBK” value (MDBK; Table 5, 24-hour incubation) of the same compound?
A: >1000 um

Q: And the “Cytotoxicity assay (um) HFF” value (HFF; Table 5, 24-hour incubation)?
A: >1000 um

Q: For `COC1C(OP(=O)(OCC2OC(n3cnc4c(N)ncnc43)CC2O)SCCCCOC(=O)c2ccccc2)C(CO)OC1n1ccc(=O)[nH]c1=O` (mixture of isomers) [Compound 6f], which “t1/2 (min) in serum” value [6] is on record?
A: >120^@ min

Q: And the CC50 (Vero)?
A: > 1000 µM

Q: What about the CC50 (MDBK) of the same compound?
A: > 1000 µM
